Laboratory results as given in article PMC9952136 (Antibiotics, 2023).
Where two headings read alike, the source gives them in different places.

What was measured:
CYP3A4 [1] = assay: Screening of CYP450 enzymes that metabolize SAL and ENR with positive inhibitors (KCZ) in broiler liver microsomes; format: in vitro ADME; conditions: 50 μmol/L ENR; 0.5 mg/mL broiler liver microsomes; KCZ pre-incubated 30 min at 41 °C, then 4 h
Protocol: (§1) Probe drugs: a volume of 0.2 mL cold acetonitrile were added into 0.05 mL microsome incubation solution, then vortexed for 2 min to extract target compounds. The mixture was centrifuged at 12,000 rpm for 15 min. The supernatant was filtered through a 0.2 μm filter.
Briefly, alpha-naphthoflavone (α-NIF, inhibitor of CYP1A2), sulfafenpyrazole (SUl, CYP2D6), sodium diethyldithiocarbamate (DIE, inhibitor of CYP2E1), omeprazole (OMP, inhibitor of CYP2C45) and ketoconazole (KCZ, inhibitor of CYP3A4) were incubated with 50 μmol/L SAL or the ENR-NADPH system, respectively. The system consisted of 0.5 mg/mL broiler liver microsomes, 0.05 mmol/L Tris-HCl buffer, and 1 mmol/L NADPH.

broiler CYP3A4 = assay: Probe substrate (testosterone) assay of CYP3A4 activity in broiler liver microsomes; format: in vitro ADME
Protocol: as §1
(§2) […]. […] Except for testosterone, which was incubated for 30 min, all other probe drugs were incubated for 4 h.

CYP3A4 (broiler) = assay: as above; format: in vitro ADME; conditions: chicken (broiler)
Protocol: as §1, §2

P-gp [2] = assay: P-gp gene and protein expression in Caco-2 cells (qPCR, WB); format: cell-based, human; conditions: ENR 5 and 20 μmol/L, SAL 0.5 and 2 μmol/L; 12 or 24 h
Protocol: (§3) The relative expressions of CYP3A4, P-gp and BCRP in tissue of broiler and Caco-2 were evaluated via quantitative real-time PCR (RT–qPCR, Bio-Rad, Hercules, CA, USA). […] Relevant cells were treated as indicated and total RNA was extracted from cells and tissue using RNA isolater Total RNA Extraction Reagent (R401-01, Vazyme Biotech Co., Ltd., Nanjing, China) following the manufacturer’s protocols, then reverse-transcribed into cDNA using HiScript II Q Select RT SuperMix for Qpcr (R233-01, Vazyme Biotech Co., Ltd.). The cDNA was determined by quantitative RT-PCR using 2 × AceQ qPCR SYBR Green Master Mix (Q141-02, Vazyme Biotech Co., Ltd.) with the primers (listed in Supplementary Tables S1 and S2). All data were analyzed using the 2−ΔΔCt method.
(§4) These were then collected in a RIPA lysis buffer (P0013B, Beyotime, Shanghai, China) and incubated on a rocker with ice for 30 min. Cell and tissue lysates were centrifuged at 12,000× g/4 °C for 15 min and lysates were boiled at 100 °C for 5 min in 5× SDS Loading Buffer and resolved by SDS-PAGE. […] The immunoreactive bands were visualized on a gel imaging system (Tanon 5200 Multi, Tanon Technology Co., Ltd., Shanghai, China), and the intensities of the immunoreactive bands were quantified using Quantity One.

BCRP [3] = assay: BCRP gene and protein expression in Caco-2 cells (qPCR, WB); format: cell-based, human; conditions: ENR 5 and 20 μmol/L; 12 and 24 h; concentration- and time-dependent
Protocol: as §3, §4

CYP3A4 [4] = assay: mRNA (RT-qPCR) and protein (Western blot) expression of hepatic CYP3A4 in treated broilers; format: in vivo
Protocol: as §3
These were then collected in a RIPA lysis buffer (P0013B, Beyotime, Shanghai, China) and incubated on a rocker with ice for 30 min. Cell and tissue lysates were centrifuged at 12,000× g/4 °C for 15 min and lysates were boiled at 100 °C for 5 min in 5× SDS Loading Buffer and resolved by SDS-PAGE. Proteins were transferred into a polyvinylidene fluoride (PVDF) membrane (Bio-Rad) and then incubated with the CYP3A4 Rabbit pAb (Cat#A2544, ABclonal, Wuhan, China), ABCG2 Rabbit pAb (Cat#A5661, ABclonal, Wuhan, China), P-gp Rabbit pAb (Cat#A11747, ABclonal, Wuhan, China) over night, respectively. They were then incubated with the HRP Goat Anti-Rabbit IgG (Cat#AS014, ABclonal, Wuhan, China) for 1.5 h. Immobilon Western Chemiluminescent HRP Substrate (Millipore) was used for protein detection. The immunoreactive bands were visualized on a gel imaging system (Tanon 5200 Multi, Tanon Technology Co., Ltd., Shanghai, China), and the intensities of the immunoreactive bands were quantified using Quantity One.

[5] = Pharmacokinetic studies of ENR and SAL in broilers (plasma, non-compartmental); conditions: for AUC(0-t) / AUC(0-inf) / Cmax / k el / MRT last / MRT inf / Tmax / half-life: AA broiler, plasma, po, 7.5 mg/kg, n=6, Mean ± SD; for AUC(0-t): AUC0-36h; for AUC(0-t) / AUC(0-inf) / Cmax / k el / MRT last / MRT inf / Tmax: broiler plasma; for AUC(0-inf): AUC0-∞; for k el: Ke; for MRT last: MRT0-36h; for MRT inf: MRT0-∞; for half-life: t1/2, broiler plasma;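 for all read-outs here: plasma drug levels measured by HPLC or LC-MS/MS, with PK parameters obtained through non-compartmental analysis in WinNonlin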
Protocol: (§6) Mobile phase compositions were 0.5 mol/L H3PO4-triethylamine (pH = 2.4, phase A) and acetonitrile (phase B) (82:18, v/v) [1, 18].
(§7) SAL (Shandong Lukang, Jining, China): The LC-MS/MS assay method for SAL were introduced in the previous research [21]. The separate system of HPLC used 0.1% formic acid solution (phase A) and methanol (phase B) as mobile phase. […] Positive ion scanning mode was used; DP, CE, and CXP are 59.1 V, 65.64 V, and 12 V, respectively.
(§8) Plasma sample: Add 0.8 mL of acetonitrile to 0.2 mL of plasma to precipitate proteins. After vortexing the mixture for 5 min, centrifuge at 12,000 rpm for 10 min. Transfer the supernatant to a new 10 mL tube. The supernatant was blown dry with nitrogen at 40 °C, and the pellet was redissolved with 1 mL of methanol. The methanol reconstituted solution was filtered through a 0.2 μm filter.
(§9) PK parameters were calculated with WinNonlin software using non-compartmental settings (version 6.4; Pharsight Corporation, Mountain View, CA, USA).

broiler CYP2E1 = assay: Probe substrate assay of CYP2E1 activity in broiler liver microsomes; format: in vitro ADME
Protocol: Probe drugs: a volume of 0.2 mL cold acetonitrile were added into 0.05 mL microsome incubation solution, then vortexed for 2 min to extract target compounds. […] The supernatant was filtered through a 0.2 μm filter.

P-gp [6] = system: P-gp; design: method as in PMID 30989413; conditions: cited from earlier work
P-gp [7] = assay: mRNA and protein expression of P-gp in liver and small intestine of treated broilers; format: in vivo, broiler; conditions: single gavage compared with the saline group
Protocol: as §3
(§5) These were then collected in a RIPA lysis buffer (P0013B, Beyotime, Shanghai, China) and incubated on a rocker with ice for 30 min. […] Proteins were transferred into a polyvinylidene fluoride (PVDF) membrane (Bio-Rad) and then incubated with the CYP3A4 Rabbit pAb (Cat#A2544, ABclonal, Wuhan, China), ABCG2 Rabbit pAb (Cat#A5661, ABclonal, Wuhan, China), P-gp Rabbit pAb (Cat#A11747, ABclonal, Wuhan, China) over night, respectively. […] The immunoreactive bands were visualized on a gel imaging system (Tanon 5200 Multi, Tanon Technology Co., Ltd., Shanghai, China), and the intensities of the immunoreactive bands were quantified using Quantity One.

in vivo = conditions: po, 6 mg/kg
Protocol: as §6, §7, §8, §9

human P-gp = system: human P-gp; design: method as in PMID 21573958; conditions: compared with P-gp inhibitor verapamil (Ver); cited from earlier work
broiler CYP2A6 = format: in vitro ADME; conditions: microsomes
Protocol: as §1

[8] = in vivo, po, 6 mg/kg
Protocol: as §6, §7, §8, §9

BCRP [9] = assay: mRNA and protein expression of BCRP in liver and small intestine of treated broilers; format: in vivo, broiler
Protocol: as §3, §5

[10] = SAL (5 d) + ENR: SAL 60 mg/kg mixed feeding 5 days, then ENR 7.5 mg/kg gavage
[11] = SAL + ENR: ENR 7.5 mg/kg + SAL 6.0 mg/kg co-gavage
[12] = abstract, broilers, group not given

Which “decrease of ENR metabolic rate after addition of the CYP3A4-specific inhibitor KCZ” value (CYP3A4 [1]) does the source give for `CCN1CCN(c2cc3c(cc2F)c(=O)c(C(=O)O)cn3C2CC2)CC1` [ENR, Enrofloxacin] here?
The value was 32%.

What about the “effect on CYP3A4 at short pre-incubation” value (broiler CYP3A4; 0 and 3 min of pre-incubation) of the same compound?
The value was “induced”.

And the “dependence of CYP3A4 inhibition on pre-incubation time” value (broiler CYP3A4; 100 μmol/L, pre-incubated 0, 3, 5, 15, 30 min)?
Its value is “time-dependent”.

And the “dependence of CYP3A4 inhibition on concentration” value (broiler CYP3A4; 50, 100 and 500 μmol/L)?
Its value is “concentration-dependent inhibitory effects”.

And the inhibition at 30 min, 100 µmol/L (CYP3A4 (broiler); probe testosterone (TS), 100 µmol/L, pre-incubated 30 min at 41 °C, broiler liver microsomes, probe testosterone, read-out: inhibition rate on CYP3A4 (TS metabolism))?
Its inhibition at 30 min, 100 µmol/L is 32%.

What about the “gene and protein expressions of P-gp in Caco-2 cells” value (P-gp [2]) of the same compound?
Its value is “significantly decreased”.

And the “expression of BCRP in Caco-2 cells” value (BCRP [3])?
The value was “decreased”.

And the “effect of ENR on mRNA and protein levels of CYP3A4 in liver” value (CYP3A4 [4]; ENR (5d) + SAL group contrasted with single SAL group)?
Its value is “significantly inhibited”.

What about the “effect of ENR on CYP3A4 gene expression in liver” value (CYP3A4 [4]; ENR + SAL group contrasted with single SAL group) of the same compound?
Its value is “overexpression”.

And the “effect on protein expression of CYP3A4 in liver” value (CYP3A4 [4]; single gavage (ENR 7.5 mg/kg or SAL 6.0 mg/kg) compared with physiological saline group)?
Its value is “induced”.

And the AUC(0-t) ([5]; ENR (7.5 mg/kg) gavage alone)?
The AUC(0-t) was 12800 ± 3990 ng·h/mL.

And the AUC(0-t) [5, 10]?
Its AUC(0-t) is 15300 ± 1290 ng·h/mL.

What about the AUC(0-t) [5, 11] of the same compound?
Its AUC(0-t) is 16700 ± 1290 ng·h/mL.

And the AUC(0-inf) ([5]; ENR (7.5 mg/kg) gavage alone)?
Its AUC(0-inf) is 13500 ± 4080 ng·h/mL.

And the AUC(0-inf) [5, 10]?
Its AUC(0-inf) is 16000 ± 1450 ng·h/mL.

And the AUC(0-inf) [5, 11]?
Its AUC(0-inf) is 17500 ± 1450 ng·h/mL.

And the Cmax ([5]; ENR (7.5 mg/kg) gavage alone)?
The Cmax was 1490 ± 540 ng/mL.

And the Cmax [5, 10]?
The Cmax was 1600 ± 160 ng/mL.

What about the Cmax [5, 11] of the same compound?
The Cmax was 1480 ± 160 ng/mL.

And the k el ([5]; ENR (7.5 mg/kg) gavage alone)?
The k el was 1.94e-05 s⁻¹.

What about the k el [5, 10] of the same compound?
The k el was 2.5e-05 s⁻¹.

And the k el [5, 11]?
Its k el is 2.5e-05 s⁻¹.

What about the MRT last ([5]; ENR (7.5 mg/kg) gavage alone) of the same compound?
The MRT last was 8.29 ± 1.03 h.

What about the MRT last [5, 10] of the same compound?
Its MRT last is 8.35 ± 0.52 h.

And the MRT last [5, 11]?
The MRT last was 9.06 ± 0.52 h.

And the MRT inf ([5]; ENR (7.5 mg/kg) gavage alone)?
The MRT inf was 10.8 ± 1.76 h.

And the MRT inf [5, 10]?
The MRT inf was 10.1 ± 0.9 h.

What about the MRT inf [5, 11] of the same compound?
Its MRT inf is 10.6 ± 0.9 h.

And the Tmax ([5]; ENR (7.5 mg/kg) gavage alone)?
The Tmax was 1.5 ± 0.55 h.

And the Tmax [5, 10]?
Its Tmax is 2.17 ± 1.03 h.

What about the Tmax [5, 11] of the same compound?
The Tmax was 2.67 ± 1.03 h.

What about the half-life ([5]; ENR (7.5 mg/kg) gavage alone) of the same compound?
The half-life was 7.45 ± 1.71 h.

What about the half-life [5, 10] of the same compound?
The half-life was 8.13 ± 0.86 h.

And the half-life [5, 11]?
The half-life was 8.65 ± 0.54 h.

What about the “increase of area under the curve by SAL” value [5, 12] of the same compound?
The value was 1.3 times.

What about the “increase of elimination half-life by SAL” value [5, 12] of the same compound?
The value was 1.2 times.

For `CC[C@@H](C(=O)[C@@H](C)[C@@H](O)[C@H](C)CCc1ccc(C)c(O)c1C(=O)O)[C@H]1O[C@](CC)([C@H]2CC[C@](O)(CC)[C@H](C)O2)C[C@@H]1C` [LAS, lasalocid], which “effect on CYP2E1 activity” value (broiler CYP2E1) is on record?
Its value is “inductive effects”.

Which “effect on P-gp in A549 cells” value (P-gp [6]; 5 μM SAL, 30 min and 1 h) does the source give for `CC[C@@H](C(=O)[C@@H](C)[C@@H](O)[C@H](C)[C@@H]1O[C@@H]([C@@H](CC)C(=O)O)CC[C@@H]1C)[C@H]1O[C@]2(C=C[C@@H](O)[C@]3(CC[C@@](C)([C@H]4CC[C@](O)(CC)[C@H](C)O4)O3)O2)[C@H](C)C[C@@H]1C` [SAL, salinomycin] here?
Its value is “no significant effect”.

What about the “effect on expression of P-gp in A549 cells” value (P-gp [6]; SAL treatment for 72 h) of the same compound?
Its value is “significantly induced”.

What about the “effect on P-gp gene expression levels in the liver and small intestine” value (P-gp [7]) of the same compound?
Its value is “suppress”.

What about the k el (in vivo; AA broiler, Ke) of the same compound?
Its k el is 1.39e-05 s⁻¹.

And the Tmax (in vivo; AA, Tmax)?
The Tmax was 0.42 ± 0.3 h.

And the half-life (in vivo; AA, t1/2)?
The half-life was 14.2 ± 3.1 h.

What about the “inhibition of human P-gp” value (human P-gp) of the same compound?
The value was “effectively inhibit”.

What about the inhibition at 30 min, 100 µmol/L (CYP3A4 (broiler); broiler, microsomes) of the same compound?
Its inhibition at 30 min, 100 µmol/L is 52%.

What about the “effect on CYP2A6 activity” value (broiler CYP2A6) of the same compound?
Its value is “inductive effects”.

What about the MRT0-48h ([8]; AA broiler) of the same compound?
Its MRT0-48h is 5.53 ± 1.16 h.

What about the “MRT0-∞” value ([8]; AA broiler) of the same compound?
The value was 7.53 ± 2.39 h.

And the AUC0-48h ([8]; AA)?
Its AUC0-48h is 218.96 ± 42.32 ng·h/mL.

And the “AUC0-∞” value ([8]; AA)?
Its value is 264.78 ± 40.60 ng·h/mL.

What about the “effect of SAL on expression of BCRP” value (BCRP [9]; ENR + SAL group compared with single ENR group) of the same compound?
The value was “significantly inhibited”.

What about the “effect of SAL on expression of BCRP” value (BCRP [9]; SAL (5d) + ENR group compared with single ENR group) of the same compound?
The value was “significantly induced”.
